Source: US11738031B2, “Compositions and methods for preventing or treating muscle conditions” (The Board of Trustees of the Leland Stanford Junior …, priority 2017, dated 2023)

Test system: tibialis anterior (TA) muscle
Assay: Cardiotoxin muscle injury, TA histology (PAX7, myofiber cross-sectional area)
Assay type: in vivo, mouse
Conditions: for effect on endogenous MuSCs in the absence of injury: no tissue damage; for increase in endogenous PAX7-expressing MuSCs / distribution of myofiber cross-sectional area: young mice; for increase in endogenous PAX7-expressing MuSCs: bolus three days after injury, fourteen days post injury; for distribution of myofiber cross-sectional area: day 14 post-cardiotoxin injury
Experimental: Muscle injury: We used an injury model entailing intramuscular injection of 10 μl of notexin (10 μg ml^−1; Latoxan) or cardiotoxin (10 μM; Latoxan) into the TA muscle. For cryoinjury, an incision was made in the skin overlying the TA muscle and a copper probe, chilled in liquid nitrogen, was applied to the TA muscle for three 10 s intervals, allowing the muscle to thaw between each application of the cryoprobe. When indicated, 48 hr after injury either 16,16-Dimethyl Prostaglandin E2 (dmPGE2) (13 nmol, Tocris, catalog #4027) or vehicle control (PBS) was injected into the TA muscle. The contralateral TA was used as an internal control. We collected tissues 14 days post-injury for analysis.
Tissue histology: We collected and prepared recipient TA muscle tissues for histology as previously described^5,6. We incubated transverse sections with anti-LAMININ (Millipore, clone A5, catalog #05-206, 1:200), and anti-PAX7 (Santa Cruz Biotechnology, catalog #sc-81648, 1:50) primary antibodies and then with AlexaFluor secondary Antibodies (Jackson ImmunoResearch Laboratories, 1:200). We counterstained nuclei with DAPI (Invitrogen). We acquired images with an AxioPlan2 epifluorescent microscope (Carl Zeiss Microimaging) with Plan NeoFluar 10×/0.30 NA or 20×/0.75 NA objectives (Carl Zeiss) and an ORCA-ER digital camera (Hamamatsu Photonics) controlled by the SlideBook (3i) software. The images were cropped using Adobe Photoshop with consistent contrast adjustments across all images from the same experiment. The image composites were generated using Adobe Illustrator. We analyzed the number of PAX7 positive cells using the MetaMorph Image Analysis software (Molecular Devices), and the fiber area using the Baxter Algorithms for Myofiber Analysis that identified the fibers and segmented the fibers in the image to analyze the area of each fiber. For PAX7 quantification we examined serial sections spanning a depth of at least 2 mm of the TA. For fiber area at least 10 fields of LAMININ-stained myofiber cross-sections encompassing over 400 myofibers were captured for each mouse as above. Data analyses were blinded. The researchers performing the imaging acquisition and scoring were unaware of treatment condition given to sample groups analyzed.
We used an injury model entailing intramuscular injection of 10 μl of notexin (10 μg ml^−1; Latoxan, catalog #L8104) or cardiotoxin (10 μM; Latoxan, catalog #L8102) into the Tibialis anterior (TA) muscle. For cryoinjury, an incision was made in the skin overlying the TA muscle and a copper probe, chilled in liquid nitrogen, was applied to the TA muscle for three 10 s intervals, allowing the muscle to thaw between each application of the cryoprobe. When indicated, 48 hr after injury either 16,16-Dimethyl Prostaglandin E2 (dmPGE2) (13 nmol, Tocris, catalog #4027), Indomethacin (35 μg, Sigma, catalog #17378) or vehicle control (PBS) was injected into the TA muscle. The contralateral TA was used as an internal control, except for the force measurement experiments where each mouse had both legs injured with the same condition and independent mice were used for each condition.
We collected and prepared recipient TA muscle tissues for histology as previously described (26, 27). For mouse injury assays we incubated transverse sections with Rabbit polyclonal anti-PGE2 (abcam, Catalog #ab2318, 1:100) Rat polyclonal anti-Laminin (Clone A5) (EMD Millipore, Catalog #05-206, 1:200), Mouse monoclonal anti-Pax7 (Santa Cruz, Catalog #sc-81648, 1:50), AlexaFluor 647-conjugated wheat germ agglutinin (WGA) antibody (W32466, Thermo Fisher Scientific), Rabbit polyclonal anti-GFP (A11122, Thermo Fisher Scientific, 1:500) and Mouse monoclonal anti-Embryonic Myosin Heavy Chain (DSHB, Catalog #F1.652, 1:10) primary antibodies and then with AlexaFluor secondary Antibodies (Jackson ImmunoResearch Laboratories, 1:500). We counterstained nuclei with DAPI (Invitrogen). […]

| SMILES | myofiber sizes (aged mice, fourteen days post-injury) | increase in the number of endogenous MuSCs (aged mice, single dmPGE2 injection, fourteen days post-injury) | effect on endogenous MuSCs in the absence of injury | increase in endogenous PAX7-expressing MuSCs | distribution of myofiber cross-sectional area | muscle mass of treated TA (day 14 post-injury) |
| --- | --- | --- | --- | --- | --- | --- |
| CCCCC(C)(C)[C@H](O)/C=C/[C@H]1[C@H](O)CC(=O)[C@@H]1C/C=C\CCCC(=O)O [dmPGE2, 16,16-dimethyl prostaglandin E2] | concomitant increase in myofiber sizes | 24±2% | no effect | 60±15% | shifted toward larger sizes |  |
| CCCCC[C@H](O)/C=C/[C@H]1[C@H](O)CC(=O)[C@@H]1C/C=C\CCCC(=O)O [PGE2, prostaglandin E2] |  |  | no difference from vehicle-injected controls | 65±7% | striking shift in the distribution of myofibers from smaller toward larger sizes | did not increase |
